Literature values as cited in patent US20100092556A1, “ALFUZOSIN FORMULATIONS, METHODS OF MAKING, AND METHODS OF USE” (priority 2006, published 2010).
Structures can show the parent of a compound that is named as a salt.

What was measured:
[1] = oral administration

Row | Compound | administered dose excreted unchanged in the urine [1] [%] | solubility in alcohol | solubility in dichloromethane | solubility in water
1 | COc1cc2nc(N(C)CCCNC(=O)C3CCCO3)nc(N)c2cc1OC (racemic) [alfuzosin, (R,S)—N-[3-[(4-amino-6,7-dimethoxy-2-quinazolinyl)methylamino]propyl]tetrahydro-2-furancarboxamide] | 11 | – | – | –
2 | COc1cc2nc(N(C)CCCNC(=O)C3CCCO3)nc(N)c2cc1OC (racemic) [Alfuzosin hydrochloride, (R,S)—N-[3-[(4-amino-6,7-dimethoxy-2-quinazolinyl)methylamino]propyl]tetrahydro-2-furancarboxamide hydrochloride] | – | sparingly soluble | practically insoluble | freely soluble
